# Read-outs that look alike come from different tables or passages of the source.
# Key:
# Candida albicans [1] = assay: FISP disc diffusion assay, zone of inhibition; format: cell-based; settings: 24 h, CH2Cl2, 250 μg/ml, agar diffusion, five lines without medium suffix, read-out: Zone: diameter of the zone of inhibition of growth
# Text: (§1) The FISP assay employs disc diffusion susceptibility testing methods to generate a spectrum of activity against a panel of representative yeasts, filamentous fungi and bacteria.
# (§2) The yeasts employed in the assay are Saccharomyces cerevisiae, Candida albicans, Candida tropicalis, Candida rugosa, Brettanomyces bruxellensis, Torulospora hansenii, Candida guilliermondi, Candida pseudotropicalis, Torulopsis glabrata, Cryptococcus albidus, Cryptococcus laurentii and Kluyveromyces fragilis.
# (§3) For carrying out the assay, seeded assay plates are prepared in the following manner according to the type of assay strain.
# (§4) Inocula for yeasts and bacterial strains are prepared from overnight broth cultures then diluted into potato dextrose agar to a final concentration of either 40 percent or 70 percent transmission at 660 nm.
# (§5) For three strains of Candida albicans and one strain of Saccharomyces cerevisiae, sterile saline is employed in place of potato dextrose broth.
# (§6) Assay plates for the yeasts and filamentous fungi are prepared by diluting the inoculum into appropriate molten agar medium, cooled to 45° C. to obtain a final concentration of 4 percent.
# (§7) The seeded agar media thus prepared are dispensed into petri dishes for assays (11 milliliters per dish). […]
# (§8) Following incubation, the inhibition zones are measured and recorded. […]
# Saccharomyces cerevisiae [2] = assay: FISP disc diffusion assay, zone of inhibition; format: cell-based; settings: 24 h, CH2Cl2, 250 μg/ml, agar diffusion, two lines without medium suffix, read-out: Zone: diameter of the zone of inhibition of growth
# Text: as §1, §2, §3, §4, §5, §6, §7, §8
# Torulospora hansenii = assay: FISP disc diffusion assay, zone of inhibition; format: cell-based; design: key: clear zone throughout, sharp edges; F: clear zone, fuzzy edges; S: slightly hazy zone (some growth observed throughout zone); H: hazy zone (considerable growth observed throughout zone); V: very hazy zone (zone of inhibition is barely discernable); R: zone displays a ring of resistant growth; settings: CH2Cl2, 250 μg/ml
# Text: as §1, §2, §3, §4, §6
# (§9) The seeded agar media thus prepared are dispensed into petri dishes for assays (11 milliliters per dish).
# (§10) The samples to be tested for production of antifungal agent are applied to 6.2 mm. filter paper discs (25 microliter/disc) and air dried at 24° C. […]
# as §8
# [3] = light stability on isolation and handling; format: physicochemical
# Candida albicans [4] = assay: Microdilution Broth Assay (MIC/MFC); format: cell-based
# Description: (§11) The broad spectrum antifungal activity of the present compounds was further determined by broth dilution methods. The compounds are particularly active towards filamentous fungi and yeasts including Candida albicans and Crypt. neoformans. The sensitivity of filamentous fungi and yeasts was determined using inhibitor dilution assays in microtiter format. A standardized spore suspension for testing the filamentous fungi was prepared by inoculating sterile distilled water with spores such that 1.5-7.5×10^3 colony forming units were added per well. The microtiter wells were filled with 75 μl of yeast nitrogen base containing 1% Dextrose medium (YNB/D) containing compound. Fifty μl of inoculated YNB/D medium was then added to the wells.
# (§12) The sensitivity of yeasts was determined by inoculating sterile distilled water with aliquots of a 4-hour yeast culture grown in Yeast Morphology (YM) media at 35° C. and diluting in YNB/D to yield a final concentration of 1.5-7.5×10^3 colony forming units/well. Seventy-five μl of inoculated media was added per well. To test the sensitivity of yeast, compound was solubilized in 10 percent aqueous DMSO at 2.56 mg/ml. The compound was diluted serially in YNB/D from 128 to 0.06 μg/ml. The wells were filled with 75 μl of drug containing media. […] Representative of the antifungal activity are the minimum inhibitory concentration and minimum fungicidal concentration data shown below in Table II: […]
# Cryptococcus neoformans = assay: Microdilution Broth Assay (MIC/MFC); format: cell-based; settings: for MIC: 35° C., read-out: MIC (minimum inhibitory concentration)
# Description: as §11, §12
# Candida guilliermondii [5] = assay: Microdilution Broth Assay (MIC/MFC); format: cell-based; settings: Meyerozyma guilliermondii, strain MY 1019
# Description: as §11, §12
# Saccharomyces cerevisiae [6] = assay: Microdilution Broth Assay (MIC/MFC); format: cell-based
# Description: as §11, §12
# Candida parapsilosis = assay: Microdilution Broth Assay (MIC/MFC); format: cell-based; settings: Lodderomyces parapsilosis; strain MY 1010; read-out: MFC (minimum fungicidal concentration)
# Description: as §11, §12
# Candida tropicalis = assay: Microdilution Broth Assay (MIC/MFC); format: cell-based
# Description: as §11, §12
# Candida guilliermondii [7] = assay: FISP disc diffusion assay, zone of inhibition; format: cell-based; settings: Meyerozyma guilliermondii, 24 h; CH2Cl2, 250 μg/ml; agar diffusion; read-out: Zone: diameter of the zone of inhibition of growth
# Text: as §1, §2, §3, §4, §6, §9, §10, §8
# Torulopsis glabrata = assay: FISP disc diffusion assay, zone of inhibition; format: cell-based; settings: Nakaseomyces glabratus, 24 h; CH2Cl2, 250 μg/ml; agar diffusion; read-out: Zone: diameter of the zone of inhibition of growth
# Text: as §1, §2, §3, §4, §6, §9, §10, §8
# Ceratocystis ulmi = assay: FISP disc diffusion assay, zone of inhibition; format: cell-based; design: key: clear zone throughout, sharp edges; F: clear zone, fuzzy edges; S: slightly hazy zone (some growth observed throughout zone); H: hazy zone (considerable growth observed throughout zone); V: very hazy zone (zone of inhibition is barely discernable); R: zone displays a ring of resistant growth; settings: CH2Cl2, 250 μg/ml
# Text: as §1
# (§13) The filamentous fungi used in the assay were Penicillium sp. Aspergillus niger, Trichoderma sp., Phoma sp., Trichoderma lignorum, Fusarium oxysporum, Ustilago maydis, Ceratocystis ulmi, Alternaria soloni, Verticillium serrae, Botrytis allii, Scopulariopsis communis, Cephalosporium sp., Cercospora beticola, Rhizomucor miehei, Aspergillus flavus and Aspergillus fumigatus.
# as §3
# (§14) Inocula for filamentous fungi are prepared by scraping the surface of stock plates maintained on potato dextrose agar with a moistened sterile dacron swab. The spores and mycelia are then suspended in 10 milliliters of sterile potato dextrose broth and adjusted to 65 percent transmission at 660 nm.
# as §6, §9
# (§15) The samples to be tested for production of antifungal agent are applied to 6.2 mm. filter paper discs (25 microliter/disc) and air dried at 24° C. When the sample to be tested is crude broth, it may be centrifuged prior to application. The discs bearing the material to be tested are then applied employing sterile conditions to the seeded assay plates. The assay plates are then incubated at either 28° C. or 37° C. for 24 hours. In one of the assays for Bacillus subtilis, the sample is applied to a disc previously impregnated with 4M potassium chloride at 25 μl/disc and then air dried.
# (§16) Following incubation, the inhibition zones are measured and recorded. The measurements are made from the extreme edge where growth differs from the background zone. […]
# Phoma sp. = assay: FISP disc diffusion assay, zone of inhibition; format: cell-based; design: key: clear zone throughout, sharp edges; F: clear zone, fuzzy edges; S: slightly hazy zone (some growth observed throughout zone); H: hazy zone (considerable growth observed throughout zone); V: very hazy zone (zone of inhibition is barely discernable); R: zone displays a ring of resistant growth; settings: CH2Cl2, 250 μg/ml
# Text: as §1, §13, §3, §14, §6, §9, §15, §16
# Cephalosporium sp. = assay: FISP disc diffusion assay, zone of inhibition; format: cell-based; design: key: clear zone throughout, sharp edges; F: clear zone, fuzzy edges; S: slightly hazy zone (some growth observed throughout zone); H: hazy zone (considerable growth observed throughout zone); V: very hazy zone (zone of inhibition is barely discernable); R: zone displays a ring of resistant growth; settings: CH2Cl2, 250 μg/ml
# Text: as §1, §13, §3, §14, §6, §9, §15, §16
# Aspergillus niger = assay: FISP disc diffusion assay, zone of inhibition; format: cell-based; settings: 24 h, CH2Cl2, 250 μg/ml, agar diffusion, two lines for this species, read-out: Zone: diameter of the zone of inhibition of growth
# Text: as §1, §13, §3, §14, §6, §7, §8
# Bacillus subtilis = assay: FISP disc diffusion assay, zone of inhibition; format: cell-based; settings: CH2Cl2, 250 μg/ml, agar diffusion
# Description: as §1
# The bacteria employed in the assay are Streptomyces sp., Acholeplasma laidlawii and Bacillus subtilis.
# as §3
# Seeded agar for Bacillus subtilis are prepared from a commercially available spore suspension which is diluted directly into molten agar (45° C.) to obtain a final concentration of 0.1 percent.
# as §9, §15, §8
structure (smiles),measurement,setting,value
CC(/C=C/C=C(\C)C(O)C(C)C(=O)O[C@H]1C[C@H](C)C=C2C=C[C@@]3(C)O[C@@H](O)CC(=O)[C@]3(C)[C@H]21)=C\C=C\C(=O)O (some centres unmarked) [Compound A],zone of inhibition at 250 µg/mL,Candida albicans [1],0 mm
same,zone of inhibition at 250 µg/mL,Saccharomyces cerevisiae [2],0 mm
same,Zone quality (qualifier),Torulospora hansenii,H
same,light sensitivity,[3],light sensitive
same,stability,[3]; isolated and worked with in the absence of light,stable
same,MIC,"Candida albicans [4]; Candida albicans, strain MY 1055, 24 to 48 hours, 35° C., read-out: MIC (minimum inhibitory concentration)",≤ 0.06 µg/mL
same,MFC,"Candida albicans [4]; Candida albicans, strain MY 1055, read-out: MFC (minimum fungicidal concentration)",≤ 0.06 µg/mL
same,MFC (minimum fungicidal concentration),Candida albicans [4]; strain MY 1028,≤ 0.06 µg/mL
same,MIC (minimum inhibitory concentration),"Candida albicans [4]; strain MY 1028, 24 to 48 hours, 35° C.",≤ 0.06 µg/mL
same,MFC,"Cryptococcus neoformans; strain MY 1051, read-out: MFC (minimum fungicidal concentration)",32 µg/mL
same,MIC,"Cryptococcus neoformans; strain MY 1146, 24 to 48 hours",128 µg/mL
same,MFC,"Cryptococcus neoformans; strain MY 1146, read-out: MFC (minimum fungicidal concentration)",64 µg/mL
same,MIC,"Cryptococcus neoformans; strain MY 2061, 24 to 48 hours",128 µg/mL
same,MFC,"Cryptococcus neoformans; strain MY 2061, read-out: MFC (minimum fungicidal concentration)",64 µg/mL
same,MIC,"Candida guilliermondii [5]; 24 to 48 hours, 35° C., read-out: MIC (minimum inhibitory concentration)",> 128 µg/mL
same,MFC,Candida guilliermondii [5]; read-out: MFC (minimum fungicidal concentration),> 128 µg/mL
same,MIC,"Saccharomyces cerevisiae [6]; strain MY 1976, 24 to 48 hours, 35° C., read-out: MIC (minimum inhibitory concentration)",> 128 µg/mL
same,MFC,"Saccharomyces cerevisiae [6]; strain MY 1976, read-out: MFC (minimum fungicidal concentration)",> 128 µg/mL
same,MFC,Candida parapsilosis,0.25 µg/mL
same,MIC,"Candida tropicalis; strain MY 1012, 24 to 48 hours, 35° C., read-out: MIC (minimum inhibitory concentration)",≤ 0.06 µg/mL
same,MFC,"Candida tropicalis; strain MY 1012, read-out: MFC (minimum fungicidal concentration)",0.5 µg/mL
same,zone of inhibition at 250 µg/mL,Candida guilliermondii [7],0 mm
same,zone of inhibition at 250 µg/mL,Torulopsis glabrata,0 mm
same,Zone quality (qualifier),Ceratocystis ulmi,V
same,Zone quality (qualifier),Phoma sp.,S
same,Zone quality (qualifier),Cephalosporium sp.,F
same,zone of inhibition at 250 µg/mL,Aspergillus niger,0 mm
same,zone of inhibition at 250 µg/mL,"Bacillus subtilis; Bacillus subtilis, 24 h, KCl (disc impregnated with 4M potassium chloride), read-out: Zone: diameter of the zone of inhibition of growth",0 mm
same,Zone: diameter of the zone of inhibition of growth,Bacillus subtilis,0 mm

# From patent US5182298A, “Cholesterol lowering agents” (Merck & Co., Inc., priority 1991, dated 1993)
